Experimental data published in patent US11771697B2, “Small molecule degraders of polybromo-1 (PBRM1)” (DANA-FARBER CANCER INSTITUTE, INC., priority 2018, dated 2023).
Blank lines part the entries; values can stand above or below the molecule they belong to.

Columns and labels:
Format in all cases: cell-based
[1] = target: T1, CRBN (Homo sapiens, UniProt Q96SW2); assay: Cellular CRBN binding assay (BRD4BD2-GFP/mCherry reporter, competition with 100 nM dBET6); settings: GFP/RFP ratio, Flip-In 293 cells expressing BRD4BD2-GFP, 5 hours
T1 construct: Cells stably expressing BRD4BD2-GFP with mCherry reporter were seeded; endogenous in cells; host or cells: Flip-In 293 cells stably expressing BRD4BD2-eGFP-P2A-mCherry
Procedure: (§1) BRD4BD2 were subcloned into mammalian pcDNA5/FRT Vector (Ampicillin and Hygromycin B resistant) modified to contain MCS-eGFP-P2A-mCherry. Stable cell lines expressing eGFP-protein fusion and mCherry reporter were generated using the Flip-In™ 293 system. Plasmid (0.3 μg) and pOG44 (4.7 μg) DNA were preincubated in 100 of Opti-MEM I (Gibco™, Life Technologies) media containing 0.05 mg/ml Lipofectamine® 2000 (Invitrogen) for 20 minutes and added to Flip-In™ 293 cells containing 1.9 ml of DMEM media (Gibco™, Life Technologies) per well in a 6-well plate format (Falcon, 353046). Cells were propagated after 48 hours and transferred into a 10 cm^2 plate (Corning, 430165) in DMEM media containing 50 μg/ml of Hygromycin B (REF 10687010, Invitrogen) as a selection marker. Following a 2-3 passage cycle, FACS (FACSAria II, BD) was used to enrich for cells expressing eGFP and mCherry.
Cells stably expressing BRD4BD2-GFP with mCherry reporter were seeded at 30-50% confluency in 384 well plates (3764, Corning) with 50 μl FluoroBrite DMEM media (Gibco™, A18967) containing 10% FBS per well a day before compound treatment. Compounds and 100 nM dBET6 were dispensed using D300e Digital Dispenser (HP) normalized to 0.5% DMSO and incubated with cells for 5 hours. The assay plate was imaged immediately using Acumen eX3/HCl (TTPLabtech) High Content Imager with 488 nm and 561 nm lasers in […] grid per well format. The resulting images were analyzed using CellProfiler (Carpenter, et al., Genome Biol. 7:R100 PIMD 17076895 (2006)).

[2] = target: T2, PBRM1 (Homo sapiens, UniProt Q86U86); assay: Kelly cell PBRM1 Western blot for cellular degradation of proteins; settings: Kelly cells; relative to GAPDH, compared to DMSO
T2 construct: near complete degradation of endogenous PBRM1; endogenous in cells; host or cells: Kelly cells
Procedure: Kelly cells were treated with compounds as indicated and incubated for 6 or 24 hours. Samples were run on 4-20% or Any kD™ SDS-PAGE Gels (Bio-Rad), and transferred to PVDF membranes using the iBlot 2.0 dry blotting system (Thermo-Fisher Scientific). Membranes were blocked with LI-COR blocking solution (LI-COR), and incubated with primary antibodies overnight, followed by three washes in LI-COR blocking solution and incubation with secondary antibodies for one hour in the dark. After three final washes, the membranes were imaged on a LI-COR fluorescent imaging station (LI-COR). Antibodies used: anti-PBRM1 at 1:500 dilution (Cell Signaling, clone D3F70), anti-GAPDH at 1:10,000 dilution (G8795, Sigma), IRDye 680 Donkey anti-mouse at 1:10,000 dilution (926-68072, LI-COR).

[3] = target: T3, PBRM1 PB5 (Homo sapiens, UniProt Q86U86); assay: PBRM1 PB5 GFP/RFP degradation assay (flow cytometry reporter assay); settings: 5 hours, FIG. 3A-3F
Procedure: as §1, with “PBRM1 PB5 was” for “BRD4BD2 were”, “[…])” for “μg)”, “Lipofectamine” for “Lipofectamine®”
Cells were seeded at 30-50% confluency in either 24, 48 or 96 well plates (3524, 3548, 3596, respectively, Costar) a day before compound treatment. Titrated compounds were incubated with cells for 5 hours following trypsinization and resuspension in DMEM media, transferred into 96-well plates (353910, Falcon) and analyzed by flow cytometer (guava easyCyte HT, Millipore). Signal from minimal 3000 events per well was acquired and the eGFP and mCherry florescence were monitored. Data was analyzed using FlowJo® (FlowJo, LLC). Forward and side scatter outliers, frequently associated with cell debris, were removed leaving >90% of total cells, followed by removal of eGFP and mCherry signal outliers, leaving 88-90% of total cells creating the set used for quantification. The eGFP protein abundance relative to mCherry was then quantified as a ten-fold amplified ratio for each individual cell using the formula: 10×eGFP/mCherry. The median of the ratio was then calculated per set, normalized to the median of the DMSO ratio.
The assay described in Example 16 was repeated, using compounds 3-8 and the control (“negative compound” (G)).

[4] = target: T3, PBRM1 PB5; assay: Imaging based PBRM1 PB5 GFP/RFP degradation assay; settings: after 3 h of incubation; for degradation of PBRM1 PB5: FIG. 3H-3J
Procedure: Cells stably expressing PBRM1 PB5 in Example 16, were seeded at 30-50% confluency in 384 well plates (3764, Corning) with 50 μL FluoroBrite DMEM media (Gibco, A18967) containing 10% FBS per well a day before compound treatment. […] The assay plate was imaged immediately using Acumen eX3/HCl (TTPLabtech) High Content Imager with 488 nm and 561 nm lasers in […] grid per well format. The resulting images were analyzed using CellProfiler (Carpenter et al., Genome Biol. 7R100 PIMD 17076895 (2006)). A series of image analysis steps (‘image analysis pipeline’) was constructed.
The CellProfiler pipeline steps were as follows. First, the red and green channels were aligned and cropped to target the middle of each well (to avoid analysis of heavily clumped cells at the edges), and a background illumination function was calculated for both red and green channels of each well individually and subtracted to correct for illumination variations across the 384-well plate from various sources of error. An additional step was then applied to the green channel to suppress the analysis of large auto fluorescent artifacts and enhance the analysis of cell specific fluorescence by way of selecting for objects under a given size, 30 A.U., and with a given shape, speckles. Cells that were mCherry-positive were then identified in the red channel filtering for objects between 8-60 pixels in diameter and using intensity to distinguish between clumped objects. The green channel was then segmented into GFP positive and negative areas and objects were labeled as GFP positive if at least 40% of it overlapped with a GFP positive area. The fraction of GFP-positive cells/mCherry-positive cells (GFP/mCherry ratio) in each well was then calculated, and the green and red images were rescaled for visualization. The GFP/mCherry ratio was normalized to DMSO visualized in GraphPad Prism 7.

SMILES: Nc1nnc(-c2ccccc2O)cc1N1CCN(C(=O)CCOCCNc2cccc3c2CN(C2CCC(=O)NC2=O)C3=O)CC1 (centres unmarked) [Compound 1, 3-(4-((2-(3-(4-(3-amino-6-(2-hydroxyphenyl)pyridazin-4-yl)piperazin-1-yl)-3-oxopropoxy)ethyl)amino)-1-oxoisoindolin-2-yl)piperidine-2,6-dione]
IC50 [1]: 30.5 µM
degradation of PBRM1 (Western blot, FIG. 4) [2]: degradation of PBRM1

SMILES: Nc1nnc(-c2ccccc2O)cc1N1CCN(C(=O)CCOCCOCCNc2cccc3c2CN(C2CCC(=O)NC2=O)C3=O)CC1 (centres unmarked) [Compound 2, 3-(4-((2-(2-(3-(4-(3-amino-6-(2-hydroxyphenyl)pyridazin-4-yl)piperazin-1-yl)-3-oxopropoxy)ethoxy)ethyl)amino)-1-oxoisoindolin-2-yl)piperidine-2,6-dione]
IC50 [1]: 20.9 µM

SMILES: Nc1nnc(-c2ccccc2O)cc1N1CCN(C(=O)COc2cccc3c2C(=O)N(C2CCC(=O)NC2=O)C3=O)CC1 (centres unmarked) [Compound 4, 4-(2-(4-(3-amino-6-(2-hydroxyphenyl)pyridazin-4-yl)piperazin-1-yl)-2-oxoethoxy)-2-(2,6-dioxopiperidin-3-yl)isoindoline-1,3-dione]
DC50 [3]: 21.8 nM

SMILES: Nc1nnc(-c2ccccc2O)cc1N1CCN(C(=O)CCCCCCCCCCOc2cccc3c2C(=O)N(C2CCC(=O)NC2=O)C3=O)CC1 (centres unmarked) [Compound 5, 4-((11-(4-(3-amino-6-(2-hydroxyphenyl)pyridazin-4-yl)piperazin-1-yl)-11-oxoundecyl)oxy)-2-(2,6-dioxopiperidin-3-yl)isoindoline-1,3-dione]
DC50 [3]: 3.64 nM

SMILES: Nc1nnc(-c2ccccc2O)cc1N1CCN(C(=O)CCCCCCCCCOc2cccc3c2C(=O)N(C2CCC(=O)NC2=O)C3=O)CC1 (centres unmarked) [Compound 8, 4-((10-(4-(3-amino-6-(2-hydroxyphenyl)pyridazin-4-yl)piperazin-1-yl)-10-oxodecyl)oxy)-2-(2,6-dioxopiperidin-3-yl)isoindoline-1,3-dione]
DC50 [3]: 3.9 nM

SMILES: Cc1ncsc1-c1ccc([C@H](C)NC(=O)[C@@H]2C[C@@H](O)CN2C(=O)[C@@H](NC(=O)CCCCCCCC(=O)N2CCN(c3cc(-c4ccccc4O)nnc3N)CC2)C(C)(C)C)cc1 [Compound 12, (2S,4R)-1-((S)-2-(9-(4-(3-Amino-6-(2-hydroxyphenyl)pyridazin-4-yl)piperazin-1-yl)-9-oxononanamido)-3,3-dimethylbutanoyl)-4-hydroxy-N—((S)-1-(4-(4-methylthiazol-5-yl)phenyl)ethyl)pyrrolidine-2-carboxamide]
degradation of PBRM1 PB5 [4]: potent degradation

SMILES: Nc1nnc(-c2ccccc2O)cc1N1CCN(CCCCCCNC(=O)COc2cccc3c2C(=O)N(C2CCC(=O)NC2=O)C3=O)CC1 (centres unmarked) [Compound 13, N-(6-(4-(3-amino-6-(2-hydroxyphenyl)pyridazin-4-yl)piperazin-1-yl)hexyl)-2-((2-(2,6-dioxopiperidin-3-yl)-1,3-dioxoisoindolin-4-yl)oxy)acetamide]
degradation of PBRM1 PB5 [4]: potent degradation
hook effect ([4]; high compound concentration): hook effect

Other lines, results leading:

IC50 [1]: 0.162 µM
DC50 [3]: 2.86 nM
SMILES: Nc1nnc(-c2ccccc2O)cc1N1CCN(C(=O)CCCCCCCCOc2cccc3c2C(=O)N(C2CCC(=O)NC2=O)C3=O)CC1 (centres unmarked) [Compound 3, 4-((9-(4-(3-amino-6-(2-hydroxyphenyl)pyridazin-4-yl)piperazin-1-yl)-9-oxononyl)oxy)-2-(2,6-dioxopiperidin-3-yl)isoindoline-1,3-dione]

DC50 [3]: 6.42 nM
SMILES: Nc1nnc(-c2ccccc2O)cc1N1CCN(C(=O)CCCCCCCOc2cccc3c2C(=O)N(C2CCC(=O)NC2=O)C3=O)CC1 (centres unmarked) [Compound 6, 4-((8-(4-(3-amino-6-(2-hydroxyphenyl)pyridazin-4-yl)piperazin-1-yl)-8-oxooctyl)oxy)-2-(2,6-dioxopiperidin-3-yl)isoindoline-1,3-dione]

DC50 [3]: 6.35 nM
SMILES: Nc1nnc(-c2ccccc2O)cc1N1CCN(C(=O)CCCCCCOc2cccc3c2C(=O)N(C2CCC(=O)NC2=O)C3=O)CC1 (centres unmarked) [Compound 7, 4-((7-(4-(3-amino-6-(2-hydroxyphenyl)pyridazin-4-yl)piperazin-1-yl)-7-oxoheptyl)oxy)-2-(2,6-dioxopiperidin-3-yl)isoindoline-1,3-dione]

degradation of PBRM1 PB5 [4]: less effective
SMILES: Cc1ncsc1-c1ccc([C@H](C)NC(=O)[C@@H]2C[C@@H](O)CN2C(=O)[C@@H](NC(=O)CCCCCCCCN2CCN(c3cc(-c4ccccc4O)nnc3N)CC2)C(C)(C)C)cc1 [Compound 11, (2S,4R)-1-((S)-2-(9-(4-(3-amino-6-(2-hydroxyphenyl)pyridazin-4-yl)piperazin-1-yl)nonanamido)-3,3-dimethylbutanoyl)-4-hydroxy-N—((S)-1-(4-(4-methylthiazol-5-yl)phenyl)ethyl)pyrrolidine-2-carboxamide]
